Data as given in patent US20060148758A1, “Method for blood glucose control in a mammal by N-acylated glucosamines” (priority 2005, published 2006).

Tests used:
Format in all cases: in vivo, rat
[1] = Incorporation of radioactivity from radiolabelled GlcNBu into plasma glucose, glucosamine or N-acetylglucosamine (HPLC of acetonitrile-soluble plasma fraction); conditions: rats, oral or IP, plasma acetonitrile-soluble fractions up to 4 hour, amine column HPLC
Procedure: In order to test whether GlcNBu, in fact, was incorporated into serum glucose, or glucosamine, radiolabelled GlcNBu was prepared from [^3H] glucosamine and administered either orally or intra-peritoneally (IP) to rats, under identical conditions shown in FIG. 1. Plasma was sampled serially and plasma proteins were precipitated with acetonitrile and the radioactivity into the acetonitrile-soluble fraction containing GlcNBu metabolites was quantified. It can be seen that the radioactive profile from the oral administration of [^3H] GlcNBu is different than the glucose concentration profiles (FIG. 1). Acetonitrile-soluble fractions illustrated in FIG. 2, including the 4 hour time point were analyzed by HPLC, using an amine column and acetonitrile/water mixtures as the mobile phase (1 mL/min flow rate), Absorbance at 195 nm and radioactivity of 2 mL fractions were monitored. Radiolabelled and non-radiolabelled standards of GlcNBu, glucose, glucosamine, N-acetylglucosamine and various disaccharides were used as standards for the column. […] It is, therefore, unlikely that a significant proportion of orally fed GlcNBu is converted to glucose, glucosamine or N-acetylglucosamine, over the time course of the study. Also, glucose or glucosamine are not known to be converted into GlcNBu by animal tissues.

[2] = Lean body mass and fat content by Dual Energy X-ray Absortiometry after 6 months daily oral feeding of control and ovariectomised rats; conditions: daily oral feeding 6 months (GlcNBu 200 mg/kg/day or equimolar Glc)
Procedure: In another experiment, there were four Groups of Sprague Dawley type female rats, with eight animals in each group, of approximately 250 g in weight. Two of the said groups underwent surgical ovariectomy and will be referred as the ovariectomised Groups (OVX). […] One C group and one OVX Group were fed GlcNBu, 200 mg/kg/day orally and one C group and one OVX Group were fed an equimolar amount of Glc daily. The daily feedings continued for all of the animals for a period of 6 months. At the end of the 6 month period the animals were euthanized, blood was obtained by cardiac puncture for glucose measurements, 24 hours after the administration of the Glc or GlcNBu, and their body fat and lean body mass was estimated, using a Hologic 4500 Dual Energy X-ray Absortiometry instrument, with small animal software.
It was previously known that ovariectomy increases the body weight and the fat content of animals undergoing this procedure. The results for the lean body mass and the fat content are shown in Table 1 and presented as the mean values±the standard deviations (SD) for each group of Animals.

blood glucose = assay: Blood glucose after oral gavage in 24 h fasted rats (glucose oxidase kit); conditions: fasted 24 h, gavage of 0.736 M in 3 ml saline; for increase in blood glucose compared with saline and glucose groups: male rats, 0-150 min
Procedure: In the experiments performed and described herein, there were four groups of Spague Dawley type male rats, weighting approximately 300 g each, consisting of four (4) animals in each group. The animals were fed freely on standard rat chow and were then fasted for 24 hours. At the end of this period, said animals were lightly anaesthetized with nitrogen oxide and halothane, the body temperature being maintained with a heat lamp, and the femoral artery was cannulated, with a heparinized catheter and syringe, so that multiple blood samples could be obtained at serial time points. The test compounds were administered by gavaging the animals, said compounds having being dissolved in 3 ml of normal saline. The concentrations of the compounds administered to three groups of animals were: 0.736 M (550 mg in 3 ml of saline) of N-butyryl-D-glucosamine (designated as GlcNBu), or 0.736 M (398 mg in 3 ml of saline) of D-glucose (designated as Glc), or a combination of 0.736 M of GlcNBu and 0.736 M Glc dissolved together in 3 ml of saline. No compound was administered to the fourth group of animals (which consisted of a control group) and animals in this group were gavaged instead with 3 ml of normal saline.
Blood (0.4 ml) was collected at 10 min before the gavage (designated as −10 min in the accompanying FIG. 1), immedietly before the gavage (designated as 0 min) and at the following time points (timed in minutes after time 0) 5, 15, 30, 60, 90, 120 and 150, as shown in the accompanying figure. The glucose concentration in the blood was determined by a commercial glucose oxidase kit, designed for the determination of blood glucose in the blood of patients with diabetes. The determinations were done in triplicate for each time point and for each of the four animals in each of the four groups.
With reference to FIG. 1, each point of the graph represents the mean of the blood glucose concentrations obtained from the four rats in each group of animals. […]

[3] = control (C, non-ovariectomised) female rats
[4] = ovariectomised (OVX) female rats

SMILES | incorporation of radioactivity into glucose, glucosamine or N-acetylglucosamine [1] | Fat content (g, mean ± SD) [2, 3] | Lean body mass (g, mean ± SD) [2, 3] | Fat content (g, mean ± SD) [2, 4] | Lean body mass (g, mean ± SD) [2, 4] | blood glucose concentration rose from time 0 to (blood glucose; male Sprague Dawley rats, followed to 150 min, mean of 4 rats) | increase in blood glucose compared with saline and glucose groups (blood glucose) | increase in blood glucose compared with saline and glucose groups (blood glucose; listed as N-butyryl-D-glucosamine)
CCCC(=O)N[C@H]1C(O)O[C@H](CO)[C@@H](O)[C@@H]1O (stereo partly drawn) [[^3H] GlcNBu] | no significant incorporation of radioactivity |  |  |  |  |  |  | 
O=C[C@H](O)[C@@H](O)[C@H](O)[C@H](O)CO [Glc, D-glucose, reference compound] |  | 77.45 ± 21.0 g | 283.93 ± 21.5 g | 112.94 ± 30.9 g | 296.87 ± 6.2 g | ~7 mmol/L |  | 
CCCC(=O)N[C@H]1C(O)O[C@H](CO)[C@@H](O)[C@@H]1O (stereo partly drawn) [GlcNBu, N-butyryl-D-glucosamine] |  | 74.57 ± 23.2 g | 264.02 ± 12.1 g | 126.08 ± 38.4 g | 307.52 ± 34.0 g |  | higher than those gavaged with saline but lower than those rats gavaged with glucose | lower blood glucose
